Results: patent US8168792B2, “Heterocyclic antiviral compounds” (Roche Palo Alto LLC, priority 2009, dated 2012)

Experiments:
[1] = molecular target: T1, HCV polymerase (NS5B570n-Con1) (Hepatitis C virus genotype 1b, UniProt Q9WMX2); experiment: HCV NS5B RNA polymerase activity (incorporation of radiolabeled nucleotide into RNA); type: biochemical, HCV Con1 strain
T1 construct: contains a 21 amino acid deletion at the C-terminus relative to the full-length HCV polymerase; 6-histidine (N); made in house; host or cells: E. coli BL21(DE) pLysS, plasmid pET17b
Protocol: The enzymatic activity of HCV polymerase (NS5B570n-Con1) was measured as the incorporation of radiolabeled nucleotide monophosphates into acid insoluble RNA products. Unincorporated radio labeled substrate was removed by filtration and scintillant was added to the washed and dried filter plate containing radio labeled RNA product. The amount of RNA product generated by NS5B570-Con1 at the end of the reaction was directly proportional to the amount of light emitted by the scintillant.
The N-terminal 6-histidine tagged HCV polymerase, derived from HCV Con1 strain, genotype 1b (NS5B570n-Con1) contains a 21 amino acid deletion at the C-terminus relative to the full-length HCV polymerase and was purified from E. coli strain BL21(DE) pLysS. The construct, containing the coding sequence of HCV NS5B Con1 (GenBank accession number AJ242654) was inserted into the plasmid construct pET17b, downstream of a T7 promoter expression cassette and transformed into E. coli. A single colony was grown overnight as a starter culture and later used inoculate 10 L of LB media supplemented with 100 μg/mL ampicillin at 37° C. Protein expression was induced by the addition of 0.25 mM isopropyl-β-D-thiogalactopyranoside (IPTG) when optical density at […] of the culture was between 0.6 and 0.8 and cells were harvested after 16 to 18 h at 30° C. NS5B570n-Con1 was purified to homogeneity using a three-step protocol including subsequent column chromatography on Ni-NTA, SP-Sepharose HP and Superdex 75 resins.
Each 50 μl enzymatic reaction contained 20 nM RNA template derived from the complementary sequence of the Internal Ribosome Entry Site (cIRES), 20 nM NS5B570n-Con1 enzyme, 0.5 μCi of tritiated UTP (Perkin Elmer catalog no. TRK-412; specific activity: 30 to 60 Ci/mmol; stock solution concentration from 7.5×10^-5 M to 20.6×10^-6 M), 1 μM each ATP, CTP, and GTP, 40 mM Tris-HCl pH 8.0, 40 mM NaCl, 4 mM DTT (dithiothreitol), 4 mM MgCl2, and 5 μl of compound serial diluted in DMSO. Reaction mixtures were assembled in 96-well filter plates (cat #MADVN0B, Millipore Co.) and incubated for 2 h at 30° C. Reactions were stopped by addition of 10% final (v/v) trichloroacetic acid and incubated for 40 min at 4° C. Reactions were filtered, washed with 8 reaction volumes of 10% (v/v) trichloroacetic acetic acid, 4 reaction volumes of 70% (v/v) ethanol, air dried, and 25 μl of scintillant (Microscint 20, Perkin-Elmer) was added to each reaction well.
The amount of light emitted from the scintillant was converted to counts per minute (CPM) on a Topcount® plate reader (Perkin-Elmer, Energy Range: Low, Efficiency Mode Normal, Count Time: 1 min, Background Subtract: none, Cross talk reduction: Off).
Data was analyzed in Excel® (Microsoft) and ActivityBase® (Idbs®). The reaction in the absence of enzyme was used to determine the background signal, which was subtracted from the enzymatic reactions. Positive control reactions were performed in the absence of compound, from which the background corrected activity was set as 100% polymerase activity. All data was expressed as a percentage of the positive control. The compound concentration at which the enzyme-catalyzed rate of RNA synthesis was reduced by 50% (IC50) was calculated by fitting
[formula] equation (i) to the data where “Y” corresponds to the relative enzyme activity (in %), “% Min” is the residual relative activity at saturating compound concentration, “% Max” is the relative maximum enzymatic activity, “X” corresponds to the compound concentration, and “S” is the Hill coefficient (or slope).

[2] = system: HCV replicon (genotype 1b, cell line 2209-23); experiment: HCV replicon assay (Renilla luciferase reporter); type: cell-based, HCV genotype 1b; details: Hepatitis C virus, 72 h; three days incubation, luciferase readout
in vitro = details: human
HCV = details: monotherapy / sole treatment; cited from earlier work

Row | Compound | IC50 [1] | melting point | IC50 [2] | CC50 at 3 days (in vitro) | serum levels of HCV-RNA (HCV)
1 | CC(C)(C)c1cc(-c2ccc[nH]c2=O)c2oc(=O)ccc2c1 [Compound I-1, 3-(6-tert-Butyl-2-oxo-2H-chromen-8-yl)-1H-pyridin-2-one] | 1530 nM | > 300 °C |  |  | 
2 | CC(C)(C)c1cc(-c2ccc[nH]c2=O)c2[nH]c(=O)ccc2c1 [Compound I-2] | 332 nM | > 300 °C |  |  | 
3 | CC(C)(C)c1cc(-c2ccc[nH]c2=O)c2oc(=O)c(-c3ccc(N)cc3)cc2c1 [Compound I-3] | 34 nM | > 300 °C |  |  | 
4 | CC(C)(C)c1cc(-c2ccc[nH]c2=O)c2[nH]c(=O)c(-c3ccccc3)cc2c1 [Compound I-4] | 91 nM | 200 to 202 °C |  |  | 
5 | CC(C)(C)c1cc(-c2ccc[nH]c2=O)c2oc(=O)c(-c3ccc(NS(C)(=O)=O)cc3)cc2c1 [Compound I-5, N-{4-[6-tert-Butyl-2-oxo-8-(2-oxo-1,2-dihydro-pyridin-3-yl)-2H-chromen-3-yl]-phenyl}-methanesulfonamide] | 5 nM | 225 to 227 °C | 10 nM | 95100 nM | 
6 | Cn1c(=O)c(-c2ccccc2)cc2cc(C(C)(C)C)cc(-c3ccc[nH]c3=O)c21 [Compound I-6] | 456 nM | 290 to 292 °C |  |  | 
7 | Cn1c(=O)c(-c2ccc(O)cc2)cc2cc(C(C)(C)C)cc(-c3ccc[nH]c3=O)c21 [Compound I-7] | 900 nM | > 300 °C |  |  | 
8 | Cn1c(=O)c(-c2ccc(NS(C)(=O)=O)cc2)cc2cc(C(C)(C)C)cc(-c3ccc[nH]c3=O)c21 [Compound I-8, N-{4-[6-tert-Butyl-1-methyl-2-oxo-8-(2-oxo-1,2-dihydro-pyridin-3-yl)-1,2-dihydro-quinolin-3-yl]-phenyl}-methanesulfonamide] | 6 nM | > 300 °C |  |  | 
9 | CC(C)(C)c1cc(-c2ccc[nH]c2=O)c2[nH]c(=O)c(-c3ccc(NS(C)(=O)=O)cc3)cc2c1 [Compound I-9] | 5 nM | > 300 °C |  |  | 
10 | CC(C)(C)c1cc(-c2ccc[nH]c2=O)c2[nH]c(=O)c(-c3cccc(NS(C)(=O)=O)c3)cc2c1 [Compound I-10, N-{3-[6-tert-Butyl-2-oxo-8-(2-oxo-1,2-dihydro-pyridin-3-yl)-1,2-dihydro-quinolin-3-yl]-phenyl}-methanesulfonamide] | 531 nM | 233 to 235 °C |  |  | 
11 | CC(C)(C)c1cc(-c2ccc[nH]c2=O)c2[nH]c(=O)c(-c3ccc(S(N)(=O)=O)cc3)cc2c1 [Compound I-11] | 46 nM | 250 to 252 °C |  |  | 
12 | Cn1c(=O)c(-c2ccc(S(N)(=O)=O)cc2)cc2cc(C(C)(C)C)cc(-c3ccc[nH]c3=O)c21 [Compound I-12] | 2370 nM | > 300 °C |  |  | 
13 | CC(C)(C)c1cc(-c2ccc[nH]c2=O)c2[nH]c(=O)c(-c3cccc(C(N)=O)c3)cc2c1 [Compound I-13] | 36 nM | 255 to 257 °C |  |  | 
14 | CC(C)(C)c1cc(-c2ccc[nH]c2=O)c2c(=O)[nH]c(-c3ccc(NS(C)(=O)=O)cc3)cc2c1 [Compound I-14, N-{4-[6-tert-Butyl-1-oxo-8-(2-oxo-1,2-dihydro-pyridin-3-yl)-1,2-dihydro-isoquinolin-3-yl]-phenyl}-methanesulfonamide] | 16 nM | > 300 °C |  |  | 
15 | CC(C)(C)c1cc(-c2ccc[nH]c2=O)c2c(=O)oc(-c3ccc(NS(C)(=O)=O)cc3)cc2c1 [Compound I-15, N-{4-[6-tert-Butyl-1-oxo-8-(2-oxo-1,2-dihydro-pyridin-3-yl)-1H-isochromen-3-yl]-phenyl}methanesulfonamide] | 8 nM |  |  |  | 
16 | CC(C)(C)c1cc2c(c(-c3ccc[nH]c3=O)c1)OC(O)C(c1ccc(NS(C)(=O)=O)cc1)C2 (stereo not shown) [Compound I-18, N-{4-[6-tert-Butyl-2-hydroxy-8-(2-oxo-1,2-dihydro-pyridin-3-yl)-chroman-3-yl]-phenyl}-methanesulfonamide] | 7 nM | 228 to 230 °C |  |  | 
17 | NC(=O)c1ncn([C@@H]2O[C@H](CO)[C@@H](O)[C@H]2O)n1 [ribavirin, 1-((2R,3R,4S,5R)-3,4-Dihydroxy-5-hydroxymethyl-tetrahydro-furan-2-yl)-1H-[1,2,4]triazole-3-carboxylic acid amide] |  |  |  |  | does not lower serum levels of HCV-RNA
